Assay results as given in patent publication US9527850B2, “Benzyl piperidine compounds as lysophosphatidic acid (LPA) receptor antagonist” (Merck Patent GmbH, priority 2011, dated 2016).
pIC50: −log10 of the molar value.

Molecular target: T1, LPA2 receptor (LPA2R) (Homo sapiens, UniProt Q9HBW0)
T1 construct: expressed in transfected cells; host or cells: U2OS
Assay: LPA2R-Calciumflux assay (intracellular calcium mobilisation, FLIPR)
Format: cell-based
Details: U2OS cells recombinant expressing LPA2R; inhibition of LPA-induced Ca-flux; 10 concentrations 30 uM to 1 nM, 1% DMSO
From the text: The assay detects intra cellular calcium which is generated by cells upon activation of the LPA2 receptor by its ligand LPA. This transient calcium mobilization can be monitored using a commercial calcium detection kit (e.g. from Molecular Devices). The main component of such a kit is a dye, which becomes fluorescent when calcium is present—a transient fluorescence signal after laddition of a ligand to a test well are the result. Readers like the FLIPR (Molecular Devices) can be used to monitor such transient “Ca-flux” signals.
The signals are calculated according to peak maximum minus base line.
The assay is performed in microplates (384 wells per plate).
LPA2R-Calciumflux Assay Protocol
The assay is run according to the following procedure: • 50 uL seed cells (10000 cells/well in DMEM buffer) • Incubate 24 h at 37° C., 10% CO2 • aspirate medium • 50 uL add calcium dye 1×HBSS/HEPES buffer • incubate 1 h at 37° C. (“loading”) • equilibrate 10 min at RT • 5 uL add compounds in HEPES buffer • shake 10 sec. at 1000 rpm • incubate 15 min at RT • 20 uL add LPA (in the FLIPR Tetra) in Krebs-buffer/BSA & measurement
The cells are seeded in DMEM buffer (DMEM, 10% FCS, 10 mM HEPES, 1% Pen/Strep).
Dye loading is done in HBSS/HEPES buffer (100 mL 10×HBSS+20 mL 1M HEPES+880 mL water, pH 7.4)
The LPA is added in Krebs/BSA buffer (120 mM NaCl, 5 mM KCl, 0.62 mM MgSO4, 1.8 mM CaCl2, 10 mM HEPES, 6 mM D(+)-Glucose, 0.2% BSA, pH 7.4).
The compounds are pre-diluted in HEPES buffer (20 mM, pH 7.4), whereby the final DMSO content in the assay is kept at 1%. The compounds are pre-diluted in order to generate dose response series on the microplates. The dose response series consist of 10 concentrations for each compound from 30 uM final to 1 nM final. From all compound wells the resulting signals are referred to control wells (located on each plate besides the compound wells) in terms of % activity.
From these % activity values—along with the corresponding compound concentrations—IC50 values are fitted for each compound using standard fitting programs such as Graphpad Prism. Here the method “log(inhibitor) vs. response—Variable slope” is used.

T1 sequence (Q9HBW0 whole entry): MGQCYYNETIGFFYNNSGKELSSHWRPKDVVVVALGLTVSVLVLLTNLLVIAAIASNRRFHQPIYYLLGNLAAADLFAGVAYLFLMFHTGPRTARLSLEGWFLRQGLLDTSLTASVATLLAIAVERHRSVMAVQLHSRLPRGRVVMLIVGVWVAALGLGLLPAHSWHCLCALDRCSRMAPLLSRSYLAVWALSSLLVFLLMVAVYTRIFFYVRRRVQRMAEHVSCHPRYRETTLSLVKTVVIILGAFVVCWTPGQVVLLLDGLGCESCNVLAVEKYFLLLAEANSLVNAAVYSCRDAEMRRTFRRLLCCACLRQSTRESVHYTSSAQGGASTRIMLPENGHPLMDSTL

Compound | pIC50
Cc1ccc(CN2CCCC[C@H]2c2cc3ccccc3[nH]2)cc1 [Example Compound 143, 2-[(S)-1-(4-Methyl-benzyl)-piperidin-2-yl]-1H-indole] | < 4.82
COc1ccc(CN2CCCCC2c2cc3ccccc3[nH]2)cc1 (stereo not drawn) [compound 1, 2-[1-(4-Methoxy-benzyl)-piperidin-2-yl]-1H-indole] | 5.30 to 6.30
Cc1cccc(CN2CCCCC2c2cc3ccccc3[nH]2)c1 (stereo not drawn) [compound 2, 2-[1-(3-Methyl-benzyl)-piperidin-2-yl]-1H-indole] | > 6.30
Fc1ccc(CN2CCCCC2c2cc3ccccc3[nH]2)cc1 (stereo not drawn) [compound 3, 2-[1-(4-Fluoro-benzyl)-piperidin-2-yl]-1H-indole] | > 6.30
COc1cccc(CN2CCCCC2c2cc3ccccc3[nH]2)c1 (stereo not drawn) [compound 4, 2-[1-(3-Methoxy-benzyl)-piperidin-2-yl]-1H-indole] | > 6.30
Cc1ccc(CN2CCCCC2c2cc3ccccc3[nH]2)cc1C (stereo not drawn) [compound 5, 2-[1-(3,4-Dimethyl-benzyl)-piperidin-2-yl]-1H-indole] | > 6.30
c1ccc(CN2CCCCC2c2cc3ccccc3[nH]2)cc1 (stereo not drawn) [compound 6, 2-(1-Benzyl-piperidin-2-yl)-1H-indole] | 5.30 to 6.30
Cn1cc(CN2CCCCC2c2cc3ccccc3[nH]2)c2ccccc21 (stereo not drawn) [compound 8, 3-[2-(1H-Indol-2-yl)-piperidin-1-ylmethyl]-1-methyl-1H-indole] | 5.30 to 6.30
CC(C)n1cc(CN2CCCCC2c2cc3ccccc3[nH]2)c2ccccc21 (stereo not drawn) [compound 9, 3-[2-(1H-Indol-2-yl)-piperidin-1-ylmethyl]-1-isopropyl-1H-indole] | 5.30 to 6.30
Cn1cccc1CN1CCCCC1c1cc2ccccc2[nH]1 (stereo not drawn) [compound 10] | 4.82 to 5.30
Cc1ccc(CN2CCCCC2c2cc3ccccc3[nH]2)cc1 (stereo not drawn) [compound 13, 2-[1-(4-Methyl-benzyl)-piperidin-2-yl]-1H-indole] | > 6.30
Cc1cccc(CN2CCCCC2c2cc3cc(F)ccc3[nH]2)c1 (stereo not drawn) [compound 14, 5-Fluoro-2-[1-(3-methyl-benzyl)-piperidin 2-yl]-1H-indole] | 5.30 to 6.30
Cc1ccc(CN2CCCCC2c2cc3cc(F)ccc3[nH]2)cc1C (stereo not drawn) [compound 15, 2-[1-(3,4-Dimethyl-benzyl)-piperidin-2-yl]-5-fluoro-1H-indole] | 5.30 to 6.30
FC(F)(F)c1ccccc1CN1CCCCC1c1cc2ccccc2[nH]1 (stereo not drawn) [compound 16] | 4.82 to 5.30
FC(F)(F)c1cccc(CN2CCCCC2c2cc3ccccc3[nH]2)c1 (stereo not drawn) [compound 17] | 4.82 to 5.30
FC(F)(F)c1ccc(CN2CCCCC2c2cc3ccccc3[nH]2)cc1 (stereo not drawn) [compound 18] | 5.30 to 6.30
N#Cc1ccc(CN2CCCCC2c2cc3ccccc3[nH]2)cc1 (stereo not drawn) [compound 19, 4-[2-(1H-Indol-2-yl)-piperidin-1-ylmethyl]-benzonitrile] | 4.82 to 5.30
Cc1cccc(CN2CCCCC2c2cc3cccc(C)c3[nH]2)c1 (stereo not drawn) [compound 20, 7-Methyl-2-[1-(3-methyl-benzyl)-piperidin-2-yl]-1H-indole] | 5.30 to 6.30
Cc1cccc(CN2CCCCC2c2cc3cc(F)cc(F)c3[nH]2)c1 (stereo not drawn) [compound 21, 5,7-Difluoro-2-[1-(3-methyl-benzyl)-piperidin-2-yl]-1H-indole] | 4.82 to 5.30
Cc1ccc(CN2CCCCC2c2cc3cc(F)cc(F)c3[nH]2)cc1 (stereo not drawn) [compound 22, 5,7-Difluoro-2-[1-(4-methyl-benzyl)-piperidin-2-yl]-1H-indole] | 4.82 to 5.30
Cc1ccc(CN2CCCCC2c2cc3cc(F)cc(F)c3[nH]2)cc1C (stereo not drawn) [compound 23, 2-[1-(3,4-Dimethyl-benzyl)-piperidin-2-yl]-5,7-difluoro-1H-indole] | 5.30 to 6.30
Cc1ccc(CN2CCCCC2c2cc3c(F)ccc(F)c3[nH]2)cc1C (stereo not drawn) [compound 24, 2-[1-(3,4-Dimethyl-benzyl)-piperidin-2-yl]-4,7-difluoro-1H-indole] | 5.30 to 6.30
CCOC(=O)c1ccc(CN2CCCCC2c2cc3ccccc3[nH]2)cc1 (stereo not drawn) [compound 25, 4-[2-(1H-Indol-2-yl)-piperidin-1-ylmethyl]-benzoic acid ethyl ester] | 5.30 to 6.30

Compound | pIC50
CC1CCCC(c2cc3ccccc3[nH]2)N1Cc1ccccc1O (stereo not drawn) [compound 26, 2-[2-(1H-Indol-2-yl)-6-methyl-piperidin-1-ylmethyl]-phenol] | 5.30 to 6.30
Cc1ccc(CN2C(C)CCCC2c2cc3ccccc3[nH]2)cc1C (stereo not drawn) [compound 27, 2-[1-(3,4-Dimethyl-benzyl)-6-methyl-piperidin-2-yl]-1H-indole] | > 6.30
COc1ccccc1CN1C(C)CCCC1c1cc2cc(F)ccc2[nH]1 (stereo not drawn) [compound 28, 5-Fluoro-2-[1-(2-methoxy-benzyl)-6-methyl-piperidin-2-yl]-1H-indole] | 5.30 to 6.30
CC1CCCC(c2cc3cc(F)ccc3[nH]2)N1Cc1ccccc1O (stereo not drawn) [compound 29, 2-[2-(5-Fluoro-1H-indol-2-yl)-6-methyl-piperidin-1-ylmethyl]-phenol] | 5.30 to 6.30
Cc1cccc(CN2C(C)CCCC2c2cc3cc(F)ccc3[nH]2)c1 (stereo not drawn) [compound 30, 5-Fluoro-2-[6-methyl-1-(3-methyl-benzyl)-piperidin-2-yl]-1H-indole] | > 6.30
CC1CCCC(c2cc3cc(F)ccc3[nH]2)N1Cc1cccc([N+](=O)[O-])c1 (stereo not drawn) [compound 31, 5-Fluoro-2-[6-methyl-1-(3-nitro-benzyl)-piperidin-2-yl]-1H-indole] | 5.30 to 6.30
CC1CCCC(c2cc3cc(F)ccc3[nH]2)N1Cc1ccc(C#N)cc1 (stereo not drawn) [compound 32, 4-[2-(5-Fluoro-1H-indol-2-yl)-6-methyl-piperidin-1-ylmethyl]-benzonitrile] | 5.30 to 6.30
CC1CCCC(c2cc3cc(F)ccc3[nH]2)N1Cc1ccc(S(C)(=O)=O)cc1 (stereo not drawn) [compound 33] | 5.30 to 6.30
CCOc1ccc(CN2C(C)CCCC2c2cc3cc(F)ccc3[nH]2)cc1 (stereo not drawn) [compound 34, 2-[1-(4-Ethoxy-benzyl)-6-methyl-piperidin-2-yl]-5-fluoro-1H-indole] | 5.30 to 6.30
CCOC(=O)c1ccc(CN2C(C)CCCC2c2cc3cc(F)ccc3[nH]2)cc1 (stereo not drawn) [compound 35, 4-[2-(5-Fluoro-1H-indol-2-yl)-6-methyl-piperidin-1-ylmethyl]-benzoic acid ethyl ester] | 5.30 to 6.30
CC1CCCC(c2cc3cc(F)ccc3[nH]2)N1Cc1ccc(F)cc1 (stereo not drawn) [compound 36, 5-Fluoro-2-[1-(4-fluoro-benzyl)-6-methyl-piperidin-2-yl]-1H-indole] | > 6.30
CC1CCCC(c2cc3cc(F)ccc3[nH]2)N1Cc1ccc(F)cc1F (stereo not drawn) [compound 37, 2-[1-(2,4-Difluoro-benzyl)-6-methyl-piperidin-2-yl]-5-fluoro-1H-indole] | 5.30 to 6.30
Cc1ccc(CN2C(C)CCCC2c2cc3cc(F)ccc3[nH]2)o1 (stereo not drawn) [compound 38, 5-Fluoro-2-[6-methyl-1-(5-methyl-furan-2-ylmethyl)-piperidin-2-yl]-1H-indole] | > 6.30
CC1CCCC(c2cc3cc(F)ccc3[nH]2)N1Cc1ccc(Cl)cc1 (stereo not drawn) [compound 39, 2-[1-(4-Chloro-benzyl)-6-methyl-piperidin-2-yl]-5-fluoro-1H-indole] | 5.30 to 6.30
COc1cccc(CN2C(C)CCCC2c2cc3cc(F)ccc3[nH]2)c1 (stereo not drawn) [compound 40, 5-Fluoro-2-[1-(3-methoxy-benzyl)-6-methyl-piperidin-2-yl]-1H-indole] | > 6.30
CC1CCCC(c2cc3cc(F)ccc3[nH]2)N1Cc1cccnc1 (stereo not drawn) [compound 41, 5-Fluoro-2-(6-methyl-1-pyridin-3-ylmethyl-piperidin-2-yl)-1H-indole] | 5.30 to 6.30
N#Cc1ccc(CN2CCCCC2c2cc3c(F)ccc(F)c3[nH]2)cc1 (stereo not drawn) [compound 42, 4-[2-(4,7-Difluoro-1H-indol-2-yl)-piperidin-1-ylmethyl]-benzonitrile] | 4.82 to 5.30
Fc1ccc(F)c2[nH]c(C3CCCCN3)cc12 (stereo not drawn) [compound 44, 4,7-Difluoro-2-piperidin-2-yl-1H-indole] | 5.30 to 6.30
CC1CCCC(c2cc3cc(F)ccc3[nH]2)N1 (stereo not drawn) [compound 45, 5-Fluoro-2-(6-methyl-piperidin-2-yl)-1H-indole] | 5.30 to 6.30
Cc1ccc(CN2C(C)CCCC2c2cc3cc(F)ccc3[nH]2)cc1 (stereo not drawn) [compound 46, 5-Fluoro-2-[6-methyl-1-(4-methyl-benzyl)-piperidin-2-yl]-1H-indole] | 5.30 to 6.30
COc1ccc(CN2CCCCC2c2nc3cc(F)ccc3[nH]2)cc1 (stereo not drawn) [compound 47] | 5.30 to 6.30
COc1ccc(CN2CCCCC2c2cc3ccccc3o2)cc1 (stereo not drawn) [compound 48, 2-Benzofuran-2-yl-1-(4-methoxy-benzyl)-piperidine] | 5.30 to 6.30
